Source: patent US4925835A, “Aziridinyl putrescine containing compositions and their uses in treating prostate cancer” (priority 1987, dated 1990)

Test system: human prostate cancer cell line PC-3
Experiment: cells
Format: cell-based
Method: Aziridinyl putrescine 1-(4-aminobutyl) aziridine was synthesized using the method as described by Piper, et al., J. Med. Chem. 12: 236-243 (1968). Cells of the human prostate cancer cell line PC-3 were used.
10^3 PC-3 human cells were plated in RPMI 1640 with 10% FCS/3 ml in 60 mm^2 petri dishes. The cell plates were incubated either with, or without difluoromethylornithine for 48 hours. This was followed by aspiration, and replacement with a medium containing either no additives, 50 uM 1-(4-aminobutyl) aziridine, 1 mM putrescine, or both 50 uM 1-(4-aminobutyl) aziridine and 1 mM putrescine. The media were aspirated after 1 hour, and replaced with a drug free medium. Incubation continued for 5 days.
*Represents mean number of colonies ± one standard deviation of
triplicate assay. Number in parenthesis is percent of control.

`NCCCCN1CC1` [AZP, 1-(4-aminobutyl) aziridine] was tested, and the activity at 50 µM (Homo sapiens, PC-3, read-out: Clonogenic survivors, percent of control) was 36%, the inhibition at 50 µM (Homo sapiens, PC-3, read-out: Inhibition of proliferation of human prostate cancer cells in culture, AZP at 50 uM, from Table 1) was ~64% and the “Clonogenic survivors (mean number of colonies ± one standard deviation)” value (PC-3, 48 h with or without DFMO, then 1 h with 50 uM AZP and/or 1 mM putrescine, 5 days drug free) was 210 ± 30 colonies.
